# Tests used:
# Type in all cases: cell-based
# [1] = tested on: human renal cancer OS-RC-2 cells; test: Growth inhibition test on human renal cancer OS-RC-2 cells (WST-1, % viability); details: test compound 10 μmol/L, 72 hours, cells without test compound = 100%
# Description: (§1) One thousand cells of human renal cancer OS-RC-2 were inoculated into each well of a 96-well microplate (manufactured by Nunc Corp.), and using RPMI1640 medium (culture medium) containing 10% FCS, preculturing was performed in a 5% carbon dioxide incubator at 37° C. for 24 hours. A DMSO solution of each test compound prepared in a concentration of 10 mmol/L was diluted with the culture medium to a final concentration of 10 μmol/L, and the diluted solution was added to each well. The individual wells were further cultured in the 5% carbon dioxide incubator at 37° C. for 72 hours. After completion of the culturing, 10 μL of WST-1 labeled mixture (manufactured by Roche Diagnostic Corp.) was added to each well, and culturing was performed in the 5% carbon dioxide incubator at 37° C. for 2 hours. Using a microplate spectrophotometer (Model 550; manufactured by Bio-Rad), the absorbance of each well was measured at 450 nm and 655 nm. The value obtained by subtracting the absorbance at 450 nm from the absorbance at 655 nm (absorbance difference) was calculated for each well. The value for cells not incorporated with a test compound was designated as 100%, and the value at a well not containing cells was designated as 0%. By comparing these values with the absorbance difference obtained at the well in which each test compound was added, the cell viability (% viability) after treatment with the test compound was calculated.
# [2] = tested on: human prostate cancer 22Rv1 cells; test: Growth inhibition test on human prostate cancer 22Rv1 cells (WST-1, % viability); details: test compound 10 μmol/L, 72 hours, cells without test compound = 100%
# Description: as §1, with “Five” for “One”, “prostate” for “renal”, “22Rv1” for “OS-RC-2”
# [3] = tested on: human chronic lymphocytic leukemia-derived MEC-1 cells; test: Growth inhibition test on human chronic lymphocytic leukemia-derived MEC-1 cells (WST-1, % viability); details: test compound 10 μmol/L, 72 hours, cells without test compound = 100%
# Description: as §1, with “Ten thousand” for “One thousand”, “human chronic lymphocytic leukemia-derived MEC-1” for “human renal cancer OS-RC-2”, “for 1 hour.” for “for 24 hours.”, “for 3” for “for 2”, “spectrophotometer (M-SPmax 250;” for “spectrophotometer (Model 550;”, “by Molecular Devices Corp.),” for “by Bio-Rad),”
# [4] = tested on: human multiple myeloma NCI-H929 cells; test: Growth inhibition test on human multiple myeloma NCI-H929 cells (WST-1, % viability); details: test compound 10 μmol/L, cells without test compound = 100%
# Description: as §1, with “Ten” for “One”, “multiple myeloma NCI-H929” for “renal cancer OS-RC-2”, “RPMI” for “RPMI1640”, “(SpectraMax 340PC384;” for “(Model 550;”, “Nihon Molecular Devices),” for “Bio-Rad),”
# [5] = tested on: human acute myelocytic leukemia MV4; 11 cells; test: Growth inhibition test on human acute myelocytic leukemia MV4; 11 cells (WST-1, % viability); details: test compound 10 μmol/L, cells without test compound = 100%
# Description: as §1, with “Ten thousand” for “One thousand”, “human acute myelocytic leukemia MV4; 11” for “human renal cancer OS-RC-2”, “using IMDM” for “using RPMI1640”, “for 1 hour.” for “for 2 hours.”, “spectrophotometer (SpectraMax 340PC384;” for “spectrophotometer (Model 550;”, “by Nihon Molecular Devices),” for “by Bio-Rad),”
structure (smiles),measurement,setting,value
CCc1c(O)cc(O)c(C(=O)c2ccsc2)c1CC(=O)N(CCO)CCOC [Compound 151],"Viability of tumor cells (% viability), Human renal cancer OS-RC-2 cells",[1],30%
same,"Viability of tumor cells (% viability), Human prostate cancer 22Rv1 cells",[2],5%
same,"Viability of tumor cells (% viability), Human chronic lymphocytic leukemia MEC-1 cells",[3],4%
same,"Viability of tumor cells (% viability), Human multiple myeloma NCI-H929 cells",[4],0%
same,"Viability of tumor cells (% viability), Human acute myelocytic leukemia MV4; 11 cells",[5],0%

# Source: patent publication US20090042883A1, “ANTITUMOR AGENT” (KYOWA HAKKOKOGYO CO., priority 2005, published 2009)
